According to PMC6990405, “Synthesis and Structure–Activity relationship of 1-(5-isoquinolinesulfonyl)piperazine analogues as inhibitors of Mycobacterium tuberculosis IMPDH” (European Journal of Medicinal Chemistry, 2019):
In brackets after ≈: the same amount, converted by molar mass. Read-outs that look alike come from different tables or passages of the source.

Key:
[1] = tested on: M. tuberculosis; set-up: method as in PMID 20934382; settings: cited from earlier work
[2] = target: T1, Mtb IMPDH (Mycobacterium tuberculosis, UniProt P9WKI7); assay: IMPDH biochemical assay (inhibition of Mtb GuaB2); settings: for IC50: Mtb IMPDH (GuaB2) enzyme
T1 construct: made in house

[3] = tested on: wild-type M. tuberculosis strain H37Rv; assay: microbe, parasite or virus in culture; assay type: cell-based; settings: for MIC90: wild-type M. tuberculosis H37Rv, read-out: MIC90 against WT; for fold reduction in whole-cell activity: relative to compound 41
[4] = target: Mycobacterium thermoresistible (Mth) IMPDH ΔCBS (Mycobacterium thermoresistible) (UniProt G7CNL4); assay: crystal structure
[5] = Mycobacterium tuberculosis, H37RV

Compound	IC50 [2] [nM]	MIC90 [3, 5] [µM]	also measured
O=S(=O)(c1cccc2cnccc12)N1CCNCC1 [5-(piperazin-1-ylsulfonyl)isoquinoline]			MIC against M. tuberculosis [1]: no MIC
Cc1ccc(NC(=O)N2CCN(S(=O)(=O)c3cccc4cnccc34)CC2)c([N+](=O)[O-])c1 [Compound 39, 4-(isoquinolin-5-ylsulfonyl)-N-(4-methyl-2-nitrophenyl)piperazine-1-carboxamide]	600 ± 30		MIC90 [3]: 25 µM (≈ 11.4 µg/mL)
Cc1cccc(Cl)c1NC(=O)N1CCN(S(=O)(=O)c2cccc3cnccc23)CC1 [Compound 40, N-(2-chloro-6-methylphenyl)-4-(isoquinolin-5-ylsulfonyl)piperazine-1-carboxamide]	3400 ± 100	250 (≈ 111 µg/mL)	
O=C(Nc1ccc2c(c1)OCO2)N1CCN(S(=O)(=O)c2cccc3cnccc23)CC1 [Compound 41, N-(benzo[d][1,3]dioxol-5-yl)-4-(isoquinolin-5-ylsulfonyl)piperazine-1-carboxamide]	80 ± 5	6.3 (≈ 2.78 µg/mL)	
O=S(=O)(c1cccc2cnccc12)N1CCN(C(=S)Nc2ccc3c(c2)OCO3)CC1 [Compound 42, N-(benzo[d][1,3]dioxol-5-yl)-4-(isoquinolin-5-ylsulfonyl)piperazine-1-carbothioamide]	1100 ± 100	50 (≈ 22.8 µg/mL)	fold reduction in whole-cell activity [3]: 8 fold
O=C(Nc1ccc2c(c1)OCO2)N1CCC(NS(=O)(=O)c2cccc3cnccc23)CC1 [Compound 43, 4-[(isoquinoline-5-sulfonyl)amino]-N-(2H-1,3-benzodioxol-5-yl)piperidine-1-carboxamide]	> 100000	> 100	
O=C(Nc1ccc2c(c1)OCO2)N1CCCN(S(=O)(=O)c2cccc3cnccc23)CC1 [Compound 44, 4-(isoquinoline-5-sulfonyl)-N-(2H-1,3-benzodioxol-5-yl)-1,4-diazepane-1-carboxamide]	600 ± 20	12.5 (≈ 5.68 µg/mL)	fold reduction in biochemical activity ([2]; relative to compound 41): 8 fold; fold reduction in whole-cell activity [3]: 2 fold
CC1CN(S(=O)(=O)c2cccc3cnccc23)CCN1C(=O)Nc1ccc2c(c1)OCO2 (stereo not shown) [Compound 45, N-(benzo[d][1,3]dioxol-5-yl)-4-(isoquinolin-5-ylsulfonyl)-2-methylpiperazine-1-carboxamide]	120 ± 20	12.5 (≈ 5.68 µg/mL)	
O=C(NCc1ccccc1)N1CCN(S(=O)(=O)c2cccc3cnccc23)CC1 [Compound 46, N-benzyl-4-(isoquinolin-5-ylsulfonyl)piperazine-1-carboxamide]	350 ± 30	3.1 (≈ 1.27 µg/mL)	
COc1cccc(CNC(=O)N2CCN(S(=O)(=O)c3cccc4cnccc34)CC2)c1 [Compound 47, 4-(isoquinolin-5-ylsulfonyl)-N-(3-methoxybenzyl)piperazine-1-carboxamide]	35 ± 2	3.1 (≈ 1.37 µg/mL)	fold greater potency than 1 (IMPDH) ([2]; relative to compound 1): ~3 fold
Cc1ccccc1CNC(=O)N1CCN(S(=O)(=O)c2cccc3cnccc23)CC1 [Compound 48, 4-(isoquinolin-5-ylsulfonyl)-N-(2-methylbenzyl)piperazine-1-carboxamide]	270 ± 30	3.9 (≈ 1.66 µg/mL)	
O=C(OCc1ccccc1)N1CCN(S(=O)(=O)c2cccc3cnccc23)CC1 [Compound 49, Benzyl 4-(isoquinolin-5-ylsulfonyl)piperazine-1-carboxylate]	800 ± 50	100 (≈ 41.1 µg/mL)	
Mycobacterium thermoresistible (Mth) IMPDH ΔCBS (from UniProt G7CNL4 1-513) (enzyme)			stoichiometry N [4]: 4
